Data published in US20220177508A1, “C10-Cyclic Substituted 13-Membered Macrolides and Uses Thereof” (Zikani Therapeutics, Inc., priority 2018, published 2022).
≈ marks a conversion by molar mass, not a printed value.

Experiments:
Format in all cases: cell-based
K. pneumoniae MP-546 = experiment: Broth dilution MIC determination (CLSI), K. pneumoniae MP-546; conditions: Klebsiella pneumoniae, MP546; strain MP-546, broth dilution
P. aeruginosa MP-3 = experiment: Broth dilution MIC determination (CLSI), P. aeruginosa MP-3; conditions: Pseudomonas aeruginosa, MP3; strain MP-3, broth dilution
S. aureus MP-12 = experiment: Broth dilution MIC determination (CLSI), S. aureus MP-12; conditions: Staphylococcus aureus, MP12; strain MP-12, broth dilution
E. coli MP-4 = experiment: Broth dilution MIC determination (CLSI), E. coli MP-4; conditions: Escherichia coli, MP4; strain MP-4, broth dilution; read-out: MIC E. coli MP-4
A. baumannii MP-15 = experiment: Broth dilution MIC determination (CLSI), A. baumannii MP-15; conditions: Acinetobacter baumannii, MP15; strain MP-15, broth dilution; read-out: MIC A. baumanii MP-15

Compound | MIC (K. pneumoniae MP-546) | MIC (P. aeruginosa MP-3) | MIC (S. aureus MP-12) | MIC (E. coli MP-4) | MIC (A. baumannii MP-15)
CCCN1C[C@H](C)C[C@@](C)(OC)[C@H](O[C@@H]2O[C@H](C)C[C@H](N(C)C)[C@H]2O)[C@@H](C)C(=O)C(C)(C)C(=O)OC[C@H]1C1CN(C(=O)CN(C)C)C1 [Compound 68, (3R,6R,8R,9R,10R)-9-(((2S,3R,4S,6R)-4-(dimethylamino)-3-hydroxy-6-methyltetrahydro-2H-pyran-2-yl)oxy)-3-(1-(dimethylglycyl)azetidin-3-yl)-8-methoxy-6,8,10,12,12-pentamethyl-4-propyl-1-oxa-4-azacyclotridecane-11,13-dione] | 4 to 32 µg/mL (≈ 5.98 to 47.8 µM) | > 32 µg/mL | 4 to 32 µg/mL (≈ 5.98 to 47.8 µM) | < 4 µg/mL | > 32 µg/mL
CCN1C[C@H](C)C[C@@](C)(OC)[C@H](O[C@@H]2O[C@H](C)C[C@H](N(C)C)[C@H]2O)[C@@H](C)C(=O)C(C)(C)C(=O)OC[C@H]1C1CN(CC(C)C)C1 [Compound 70, (3R,6R,8R,9R,10R)-9-(((2S,3R,4S,6R)-4-(dimethylamino)-3-hydroxy-6-methyltetrahydro-2H-pyran-2-yl)oxy)-4-ethyl-3-(1-isobutylazetidin-3-yl)-8-methoxy-6,8,10,12,12-pentamethyl-1-oxa-4-azacyclotridecane-11,13-dione] | 4 to 32 µg/mL (≈ 6.39 to 51.1 µM) | > 32 µg/mL | 4 to 32 µg/mL (≈ 6.39 to 51.1 µM) | < 4 µg/mL | > 32 µg/mL
CO[C@]1(C)C[C@@H](C)CN(C)[C@H](C2CN(C3CCCCC3)C2)COC(=O)C(C)(C)C(=O)[C@H](C)[C@H]1O[C@@H]1O[C@H](C)C[C@H](N(C)C)[C@H]1O [Compound 73, (3R,6R,8R,9R,10R)-3-(1-cyclohexylazetidin-3-yl)-9-(((2S,3R,4S,6R)-4-(dimethylamino)-3-hydroxy-6-methyltetrahydro-2H-pyran-2-yl)oxy)-8-methoxy-4,6,8,10,12,12-hexamethyl-1-oxa-4-azacyclotridecane-11,13-dione] | < 4 µg/mL | > 32 µg/mL | 4 to 32 µg/mL (≈ 6.27 to 50.2 µM) | 4 to 32 µg/mL (≈ 6.27 to 50.2 µM) | 4 to 32 µg/mL (≈ 6.27 to 50.2 µM)
CCN(CC)[C@H](C)C(=O)N1CC([C@H]2COC(=O)C(C)(C)C(=O)[C@H](C)[C@@H](O[C@@H]3O[C@H](C)C[C@H](N(C)C)[C@H]3O)[C@](C)(OC)C[C@@H](C)CN2C)C1 [Compound 74, (3S,6R,8R,9R,10R)-3-(1-(diethyl-D-alanyl)azetidin-3-yl)-9-(((2S,3R,4S,6R)-4-(dimethylamino)-3-hydroxy-6-methyltetrahydro-2H-pyran-2-yl)oxy)-8-methoxy-4,6,8,10,12,12-hexamethyl-1-oxa-4-azacyclotridecane-11,13-dione] | 4 to 32 µg/mL (≈ 5.86 to 46.9 µM) | > 32 µg/mL | > 32 µg/mL | < 4 µg/mL | > 32 µg/mL
CCCN1CC([C@@H]2COC(=O)C(C)(C)C(=O)[C@H](C)[C@@H](O[C@@H]3O[C@H](C)C[C@H](N(C)C)[C@H]3O)[C@](C)(OC)C[C@@H](C)CN2C)C1 [Compound 76, (3R,6R,8R,9R,10R)-9-(((2S,3R,4S,6R)-4-(dimethylamino)-3-hydroxy-6-methyltetrahydro-2H-pyran-2-yl)oxy)-8-methoxy-4,6,8,10,12,12-hexamethyl-3-(1-propylazetidin-3-yl)-1-oxa-4-azacyclotridecane-11,13-dione] | < 4 µg/mL | > 32 µg/mL | 4 to 32 µg/mL (≈ 6.69 to 53.5 µM) | < 4 µg/mL | > 32 µg/mL
CO[C@]1(C)C[C@@H](C)CN(C)[C@H]([C@@H]2CCCNC2)COC(=O)C(C)(C)C(=O)[C@H](C)[C@H]1O[C@@H]1O[C@H](C)C[C@H](N(C)C)[C@H]1O [Compound 77] | 4 to 32 µg/mL (≈ 6.85 to 54.8 µM) | > 32 µg/mL | > 32 µg/mL | 4 to 32 µg/mL (≈ 6.85 to 54.8 µM) | > 32 µg/mL
